Measured values reported in patent US4150138A, “Method of reducing blood pressure with thiourea derivatives and guanidine derivatives” (Hoffmann-La Roche Inc., priority 1978, dated 1979).
Like-named read-outs stand apart in the source and are kept apart here.

Tests used:
[1] = Acute toxicity (LD50) in the mouse; settings: in vivo
[2] = tested on: genetically or deoxycorticosterone acetate/sodium chloride fed hypertensive rats; assay: Anti-hypertensive activity in hypertensive rats (indirect systolic blood pressure from the tail, heart rate); format: in vivo, rat (Charles River male); settings: 10 mg/kg p.o., 6 hours after administration
Protocol: For example, Doca-Na hypertension is induced in Charles River male rats weighing 170-210 grams by unilateral nephrectomy followed by subcutaneous implantation of a 25 mg. deoxycorticosterone acetate pellet. Animals are placed in individual cages and receive 0.9% sodium chloride solution and rat chow diet ad libitum. Two weeks are allowed to elapse from the time of surgery for development of hypertension, i.e., systolic blood pressure above 150 mm Hg. Systolic blood pressure is measured indirectly from the tail of unanesthetized rats (restrained in holders heated for 5-10 minutes at 37°-38° C.) using a pneumatic pulse transducer (piezo-electric crystal and occluding cuff). The transducer and occluding cuff are coupled to a two-channel recorder. Control readings are taken prior to drug and at 1, 3, 6 and 24 hours post-drug. All test compounds are prepared in acacia solution (5%) and are orally administered to the test animals.

[3] = tested on: tetrabenazine-induced ptosis in mice; assay: Antidepressant activity: prevention of tetrabenazine-induced ptosis in mice; format: in vivo; settings: Mus musculus, ip, 1 h, tetrabenazine (normally 150 mg/kg) i.p. one hour after test compound, ptosis read one hour later, read-out: ED50 (dose at which ptosis is prevented in 3/6 of the mice)
Protocol: The compounds of formulas I and II have central nervous system activity, including antidepressant activity. […] For example, six mice are treated with the test compound. One hour later a ptosis-inducing dose of tetrabenazine (normally 150 mg/kg) is given intraperitoneally. Ptosis is read one hour after the tetrabenazine injection. The ED50 is the dose at which ptosis is prevented in 3/6 of the mice. […] The ED50 is calculated by the method of Behrens. Arch. Exp. Path. & Pharm. 140, 237 (1929).

| SMILES | LD50 ([1]; ip, read-out: LD50 i.p.) [mg/kg] | LD50 ([1]; po, read-out: LD50 p.o.) [mg/kg] | decrease in the blood pressure [2] [mm/Hg] | decrease in the heart rate [2] [beats/minutes] | ED50 [3] [mg/kg] |
| --- | --- | --- | --- | --- | --- |
| NCCNC(=S)Nc1cccc(Cl)c1Cl [1-(2-aminoethyl)-3-(2,3-dichlorophenyl)thiourea] | 450 | > 1000 | 51 | 95 | – |
| NCCNC(=S)Nc1c(Cl)cccc1Cl [1-(2-aminoethyl)-3-(2,6-dichlorophenyl)thiourea] | 450 to 550 | 750 to 775 | 73 | 81 | 5.7 |
